Test results: ChEMBL document CHEMBL2390900, “The use of virtual screening and differential scanning fluorimetry for the rapid identification of fragments active against MEK1” (Bioorg Med Chem Lett, 2013)

Legend:
[1] = biological target: T1, Dual specificity mitogen-activated protein kinase kinase 1 (Homo sapiens, UniProt Q02750)
[2] = biological target: T1, Dual specificity mitogen-activated protein kinase kinase 1; remark: listed apart in the source
Description: Binding affinity to MEK1 (unknown origin) assessed as fluorescence intensity every 0.2 degC at 500 uM at 20 degC to 90 degC by differential screening fluorimetry analysis

[3] = biological target: T1, Dual specificity mitogen-activated protein kinase kinase 1; experiment: Inhibition of MEK1 (unknown origin) using ATP and ERK2 K54R as substrate after 60 to 80 mins by HTRF assay

T1 sequence (Q02750 whole entry): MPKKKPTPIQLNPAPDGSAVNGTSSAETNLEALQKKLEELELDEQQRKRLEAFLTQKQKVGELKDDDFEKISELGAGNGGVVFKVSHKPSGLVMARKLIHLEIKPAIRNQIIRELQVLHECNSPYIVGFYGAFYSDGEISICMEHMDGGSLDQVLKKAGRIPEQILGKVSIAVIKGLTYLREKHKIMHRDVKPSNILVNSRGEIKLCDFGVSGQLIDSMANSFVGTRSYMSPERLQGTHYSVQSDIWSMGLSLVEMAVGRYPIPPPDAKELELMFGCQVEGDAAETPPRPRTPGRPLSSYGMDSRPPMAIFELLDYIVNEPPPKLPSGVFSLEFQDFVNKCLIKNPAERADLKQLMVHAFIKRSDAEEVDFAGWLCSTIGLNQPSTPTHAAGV

Row | RU [1] | SMILES | ΔTm [2] | IC50 [3]
1 | 0.3 | O=c1[nH]ccc2cc(O[C@@H]3CCCNC3)c(Cl)cc12 | 0.2 °C | –
2 | – | CC1(O)CCN2C(=O)CCc3cccc1c32 (centres undefined) | 3.8 °C | 18.1 µM
